Data as given in paper PMC9814544 (Communications Chemistry, 2020).
Where “and” joins values, the source holds several entries; their conditions need not be identical. Equal entries are not always repeated. Entries after “also recorded” stand apart in the source; their conditions may differ.

Columns and labels:
[1] = test system: panel of GPCRs, drug transporters, ion channels, nuclear receptors, kinases, and other non-kinase enzymes; experiment: Eurofins CEREP off-target panel; details: at 10 µM; measured once
Procedure: To assess potential off-target liabilities, BI-0115 was tested on a panel of assays across various key pharmacological target classes (GPCRs, drug transporters, ion channels, nuclear receptors, kinases, and other non-kinase enzymes; Eurofins CEREP, France). […] Although the compound solubility is low, it was sufficient to get a saturable dose response in the cellular assay and the various biophysical assays. Permeability, as measured with the PAMPA assay is good.

LOX129 = test system: T1, LOX129; experiment: STD-NMR binding, LOX129; parameters: species or system human; details: 5 µM LOX129, 250 µM compound; n = 1
T1 construct: 6His-tag with thrombin cleavage site (N, cleaved yes); made in house; host or cells: E. coli SHuffle cells (New England BioLabs), pET28a
Procedure: Selected cluster representatives were analyzed by multiple biophysical methods to further validate and characterize the identified compounds.
STD NMR binding experiments[51] were performed in 2.5 mm NMR tubes on a Bruker AVII+ 600 MHz spectrometer equipped with a 5 mm cryo-TCI probe and z-gradients. 5 μM LOX129 was incubated with 250 μM BI-0115 in 25 mM Na-phosphate, 100 mM NaCl pH 7.5 in D2O at 298 K and a total d6-DMSO concentration of 1%. The on- and off-resonance spectra were recorded in an interleaved fashion with 256 transients, respectively. Saturation was achieved by irradiation with a Gaussian pulse train for 3 s at resonance frequencies of 100 Hz and 20 kHz, respectively. Residual protein signals were suppressed by employing a 30 ms spin lock pulse prior to acquisition. Water suppression was achieved by a WATERGATE sequence employing a double gradient echo[53]. The signal intensity in the saturation transfer difference spectrum was normalized by the following equation to yield the %STD value: %STD = 100 * (((I(0)-I(sat))/I(0))), where I(0) is the intensity of one signal in the off-resonance and I(sat) the intensity of one signal in the on-resonance spectrum, respectively. Topspin 3.0 (Bruker Biospin) was used to process and analyze data.

LOX129 (LOX-1) = test system: T2, LOX129 (LOX-1); experiment: Native ESI-MS of LOX-1 with ligand; assay type: binding, human; details: Vc = 60V; up to 10 eq ligand
T2 construct: 6His-tag with thrombin cleavage site (N, cleaved yes); made in house; host or cells: E. coli SHuffle cells (New England BioLabs), pET28a
Procedure: This is in agreement with the biophysical data obtained so far. The ITC measurements gave a stoichiometry of protein:ligand of 1.8 which fits to multiples of a 2:1 complex. To confirm that the crystallographically observed tetrameric arrangement exists also in solution native Electrospray-Ionization Mass Spectrometry (ESI-MS) analysis was used. A MS experiment using covalent dimeric LOX129 under denaturing conditions was performed giving a mass of 33773 Da, corresponding to a mass difference of 13 Da to the theoretical molecular weight of 33786 Da (Supplementary Fig. 9). This mass difference corresponds to the three intramolecular and the one intermolecular disulfide bonds (14 Da). MS analysis under non denaturing conditions (Fig. 4a) measured LOX129 mainly as a dimer. Only traces of the tetrameric state were detectable. A binding experiment of BI-0115 to LOX-1 was performed using soft MS tuning parameters (Vc = 40V) in order to maintain BI-0115 interactions in the gas phase.
Mass spectrometry experiments were carried out on an electrospray time-of-flight mass spectrometer (LCT, Waters, Manchester, UK) equipped with an automated chip-based nanoESI device (Triversa Nanomate, Advion Biosciences, Ithaca, NY). […]

LOX129 (LOX-1 129-273) = target: T3, LOX129 (LOX-1 129-273) (Homo sapiens, UniProt P78380); experiment: Isothermal titration calorimetry; assay type: binding
T3 construct: 6His-tag with thrombin cleavage site (N, cleaved yes); made in house; host or cells: E. coli SHuffle cells (New England BioLabs), pET28a
Procedure: For additional biophysical profiling of the specific SPR binders, isothermal titration calorimetry (ITC) was used. Due to limited solubility of the compounds, an inverse setup was used by titrating LOX129 into compound solution. The mean Kd value of three independent measurements is 7 µM (Supplementary Table 4).
Isothermal titration calorimetry experiments were conducted on a MicroCal iTC200 instrument (Malvern) using LOX-1 that had been passed through a PD-10 desalting column (GE Healthcare) equilibrated with 20 mM Tris pH 7.3 and 150 mM NaCl. Complete saturation of 35 µM, respectively 40 µM LOX inhibitor was typically achieved by injecting 18× 2 µl aliquots of 300 µM LOX-1 at a temperature of 25 °C. As a control 300 µM LOX-1 was injected in buffer (n = 1, Supplementary Fig. 19).
The thermodynamic binding parameters were extracted by non-linear regression analysis of the binding isotherms (MicroCal PEAQ-ITC Analysis Software). A single-site binding model was applied yielding the binding enthalpy (ΔH), stoichiometry (n), entropy (ΔS) and association constant (Ka). The binding isotherm of protein in buffer control was not subtracted during data evaluation.

CCCN1C(=O)c2ccc(Cl)cc2Nc2ncccc21 [BI-0115]
CEREP profile [1]: very clean profile; also recorded: clean | STD-NMR (LOX129): binding | ligand induced tetramerization, increase of the 16+ charge state (LOX129 (LOX-1)): up to 33% | ITC thermodynamic driving force (LOX129 (LOX-1 129-273); in words): strong entropic contribution | Kd (LOX129 (LOX-1 129-273); mean of n = 3, 300 µM LOX129 dimer titrated into compound, 25 °C, read-out: ITC Kd): 7 µM and 6.99 µM | ITC N (molar ratio protein:inhibitor) (LOX129 (LOX-1 129-273); stoichiometry, mean of n = 3): 1.8 and 1.77 ±0.34
